Data on 10 compounds can be found in ChEMBL document CHEMBL1201862, “PubChem BioAssay data set” (2004).

Some test systems named below: SF-539; NCI/ADR-RES; SNB-75; NCI-H23; SF-295; NCI-H522; 786-0; MOLT-4; UO-31; ACHN; DU-145; HOP-92; MDA-MB-231; A498; SN12C; SK-OV-3; NCI-H226; UACC-257; SK-MEL-2; U-251.
What all share (experiment): NCI-60 cell line screen, 48 h

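Method: 48-hour compound exposure of cells in 96-well plates, five concentrations, linear interpolation of endpoints. GI50: concentration for 50% inhibition of growth.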 Active and inactive are the calls of the source. Rule as the data show it: active = GI50 up to about 1.1 µM and inactive = higher.

For `O=C1Nc2ccc(Br)cc2C1=Nc1cccnc1`, the GI50 in the experiment on SF-539 was 16.5 µM (inactive); in the experiment on NCI/ADR-RES, 24.8 µM (inactive); in the experiment on SNB-75, > 100 µM (inactive); with NCI-H23, 20.7 µM (inactive); with SF-295 it was 50.4 µM (inactive); in the experiment on NCI-H522, 13.2 µM (inactive). The GI50 was 20.5 µM (inactive) in the experiment on 786-0; 22.5 µM (inactive) in the experiment on MOLT-4; 11.1 µM (inactive) in the experiment on UO-31; 18.3 µM (inactive) in the experiment with ACHN; 33 µM (inactive) with DU-145; > 100 µM (inactive) with HOP-92. The GI50 is 18.1 µM (inactive) in the experiment with MDA-MB-231; > 100 µM (inactive) in the experiment on A498; 18.4 µM (inactive) in the experiment on SN12C; 47.5 µM (inactive) in the experiment on SK-OV-3; 31.4 µM (inactive) in the experiment with NCI-H226; 21.4 µM (inactive) with UACC-257. In addition, the figures for the GI50 with SK-MEL-2 and with U-251 were 23.4 µM (inactive) and 12.4 µM (inactive), respectively.
For the compound `CCc1ncc(CO)n1Cc1cccc2ccccc12`, the GI50 in the experiment on SF-539 was > 100 µM (inactive); with NCI/ADR-RES, 50.9 µM (inactive); with SNB-75 it was 31.3 µM (inactive); in the experiment with NCI-H23, > 100 µM (inactive); with SF-295 it was 53.1 µM (inactive); in the experiment with NCI-H522, > 100 µM (inactive). Besides, the GI50 in the experiment with 786-0 is > 100 µM (inactive); in the experiment with UO-31 it was > 100 µM (inactive); in the experiment on ACHN, > 100 µM (inactive); with DU-145, > 100 µM (inactive); in the experiment with HOP-92 it was 86.1 µM (inactive); in the experiment on MDA-MB-231 it was > 100 µM (inactive). The GI50 is > 100 µM (inactive) in the experiment on A498; > 100 µM (inactive) in the experiment on SN12C; > 100 µM (inactive) with SK-OV-3; > 100 µM (inactive) in the experiment on NCI-H226; 81.8 µM (inactive) with UACC-257; > 100 µM (inactive) with SK-MEL-2. The GI50 with U-251 is > 100 µM (inactive).
For `O=C(CCSC(CC(=O)c1ccc(Cl)cc1)c1ccc(Cl)cc1)Nc1ccc(Cl)cc1` (configuration not stated), the GI50 with SF-539 is 18.4 µM (inactive); in the experiment on NCI/ADR-RES, 15.5 µM (inactive); with SNB-75, 21.8 µM (inactive); in the experiment with NCI-H23, 16.3 µM (inactive); in the experiment with SF-295 it was 9.44 µM (inactive); in the experiment on NCI-H522, 14.5 µM (inactive). The GI50 is 13.8 µM (inactive) with 786-0; 3.01 µM (inactive) in the experiment with MOLT-4; 14 µM (inactive) in the experiment on UO-31; 14.4 µM (inactive) in the experiment on ACHN; 14 µM (inactive) with DU-145; 17.6 µM (inactive) with HOP-92. The GI50 in the experiment on MDA-MB-231 is 15.2 µM (inactive); in the experiment with A498 it was 12.4 µM (inactive); in the experiment on SN12C, 12.4 µM (inactive); with SK-OV-3 it was 20.7 µM (inactive); in the experiment on NCI-H226, 20.3 µM (inactive); in the experiment on UACC-257 it was 15.7 µM (inactive). The results for the GI50 with SK-MEL-2 and with U-251 were 15.5 µM (inactive) and 9.06 µM (inactive), respectively.
For `O=C(/C=C/c1ccc(OCC(=O)N2CCN(c3ccccc3)CC2)cc1)c1ccc(Cl)cc1`, the GI50 in the experiment with SF-539 was 19 µM (inactive); in the experiment with NCI/ADR-RES, 59.2 µM (inactive); in the experiment with SNB-75 it was 12 µM (inactive); in the experiment with NCI-H23, 50.4 µM (inactive); in the experiment with SF-295 it was 18.6 µM (inactive); with NCI-H522 it was 49.3 µM (inactive). For the same compound, the GI50 is 22 µM (inactive) in the experiment on 786-0; > 100 µM (inactive) in the experiment on MOLT-4; > 71 µM (inactive) in the experiment on UO-31; 22.4 µM (inactive) in the experiment with ACHN; 51.2 µM (inactive) with DU-145; 13.3 µM (inactive) with HOP-92. In addition, the GI50 in the experiment with MDA-MB-231 was 25.5 µM (inactive); with A498 it was 23.4 µM (inactive); in the experiment with SN12C, 89.5 µM (inactive); in the experiment on SK-OV-3, 27.5 µM (inactive); with NCI-H226 it was 50.8 µM (inactive); in the experiment with UACC-257, > 72.4 µM (inactive). Further, the results for the GI50 in the experiment on SK-MEL-2 and with U-251 were 36.5 µM (inactive) and 15.7 µM (inactive), respectively.
Take `Oc1ccc(-c2cc(-c3cc(-c4ccc(O)cc4)no3)on2)cc1`: the GI50 in the experiment on SF-539 was 4.13 µM (inactive); with NCI/ADR-RES, > 100 µM (inactive); in the experiment with SNB-75, > 52.8 µM (inactive); in the experiment with NCI-H23 it was > 100 µM (inactive); in the experiment with SF-295 it was 35.1 µM (inactive); in the experiment with NCI-H522 it was 19.7 µM (inactive). In addition, the GI50 is > 100 µM (inactive) in the experiment on 786-0; 1.35 µM (inactive) in the experiment with MOLT-4; 10.8 µM (inactive) with UO-31; 2.81 µM (inactive) with ACHN; 5.09 µM (inactive) in the experiment on DU-145; > 100 µM (inactive) with HOP-92. Besides, the GI50 was > 24.4 µM (inactive) with MDA-MB-231; > 100 µM (inactive) with A498; > 100 µM (inactive) with SK-OV-3; > 75.9 µM (inactive) in the experiment with NCI-H226; 7.64 µM (inactive) in the experiment on UACC-257; > 48 µM (inactive) in the experiment on SK-MEL-2. The GI50 in the experiment with U-251 is 39.9 µM (inactive).
For `COc1cccc(CC(=O)N2CCN(CCCc3ccccc3)CC2)c1`, the GI50 was > 100 µM (inactive) with SF-539; 27.9 µM (inactive) in the experiment on NCI/ADR-RES; 36.1 µM (inactive) in the experiment on NCI-H23; 47.5 µM (inactive) with SF-295; 57.9 µM (inactive) in the experiment on NCI-H522; > 100 µM (inactive) in the experiment on 786-0. Further, the GI50 in the experiment with MOLT-4 is 54.7 µM (inactive); in the experiment on UO-31, 39.1 µM (inactive); in the experiment with ACHN it was 83.8 µM (inactive); in the experiment with DU-145, > 100 µM (inactive); with HOP-92, 25.2 µM (inactive); with MDA-MB-231 it was > 100 µM (inactive). For the same compound, the GI50 was > 100 µM (inactive) in the experiment on A498; > 100 µM (inactive) in the experiment with SN12C; > 100 µM (inactive) in the experiment with SK-OV-3; > 100 µM (inactive) with NCI-H226; 37.3 µM (inactive) in the experiment with UACC-257; > 100 µM (inactive) in the experiment on SK-MEL-2. For the same compound, the GI50 in the experiment on U-251 was > 100 µM (inactive).
For `Nc1nc(Cl)cc(NCC2(CO)CCC(CCc3ccccc3)C2)n1` (configuration not stated), the GI50 in the experiment on SF-539 was 17.9 µM (inactive); in the experiment on NCI/ADR-RES it was 11.9 µM (inactive); in the experiment with SNB-75, 20.8 µM (inactive); with NCI-H23, 2.88 µM (inactive); in the experiment on SF-295 it was 0.687 µM (active); with NCI-H522, 11.4 µM (inactive). In addition, the GI50 in the experiment with 786-0 was 15.7 µM (inactive); in the experiment with MOLT-4 it was 2.7 µM (inactive); with UO-31, 18 µM (inactive); in the experiment with ACHN, 13.8 µM (inactive); in the experiment with DU-145, 14.8 µM (inactive); in the experiment on HOP-92 it was 15.5 µM (inactive). Also, the GI50 in the experiment on MDA-MB-231 was 16.6 µM (inactive); with A498, 12.8 µM (inactive); in the experiment on SN12C, 16 µM (inactive); in the experiment with SK-OV-3, 17.5 µM (inactive); in the experiment on NCI-H226, 16.5 µM (inactive); in the experiment on UACC-257, 6.22 µM (inactive). Further, the GI50 with SK-MEL-2 is 18.5 µM (inactive); in the experiment with U-251, 15 µM (inactive).
On to `O=C(/C=C\Nc1ccccc1O)C(Cl)(Cl)Cl`, for which the GI50 in the experiment on SF-539 is 56.2 µM (inactive); in the experiment on NCI/ADR-RES it was 99.3 µM (inactive); in the experiment with SNB-75, 30.3 µM (inactive); with NCI-H23 it was 35.7 µM (inactive); in the experiment on SF-295 it was 3.87 µM (inactive); in the experiment on NCI-H522, 22.6 µM (inactive). Further, the GI50 was 22.8 µM (inactive) in the experiment on 786-0; 27.7 µM (inactive) with MOLT-4; 25.1 µM (inactive) in the experiment with UO-31; 26.9 µM (inactive) in the experiment with ACHN; 45.8 µM (inactive) with DU-145; 70.5 µM (inactive) in the experiment on HOP-92. Besides, the GI50 in the experiment with MDA-MB-231 is > 100 µM (inactive); in the experiment with A498, 35.6 µM (inactive); in the experiment with SN12C, 72.8 µM (inactive); in the experiment on SK-OV-3 it was 53.2 µM (inactive); with NCI-H226, > 100 µM (inactive); in the experiment on UACC-257 it was 33.5 µM (inactive). The figures for the GI50 in the experiment on SK-MEL-2 and in the experiment with U-251 were 43.2 µM (inactive) and 26.9 µM (inactive), respectively.
Take `Cc1ccc(CNNC(=O)c2cc[n+]([BH2-]C#N)cc2)cc1`: the GI50 with SF-539 was > 100 µM (inactive); in the experiment on NCI/ADR-RES it was > 100 µM (inactive); in the experiment with SNB-75, 72.6 µM (inactive); in the experiment on NCI-H23, > 100 µM (inactive); in the experiment with SF-295 it was > 100 µM (inactive); with NCI-H522, 95.5 µM (inactive). Moreover, the GI50 was > 100 µM (inactive) in the experiment with 786-0; 71.3 µM (inactive) in the experiment with MOLT-4; > 100 µM (inactive) in the experiment with UO-31; 11.3 µM (inactive) in the experiment with ACHN; > 100 µM (inactive) in the experiment with DU-145; > 100 µM (inactive) in the experiment with HOP-92. The GI50 in the experiment with MDA-MB-231 was 99.3 µM (inactive); in the experiment on A498, 15.6 µM (inactive); with SN12C it was > 100 µM (inactive); in the experiment on SK-OV-3 it was > 100 µM (inactive); with NCI-H226, > 100 µM (inactive); with UACC-257 it was > 100 µM (inactive). Also, the GI50 in the experiment with SK-MEL-2 and in the experiment on U-251 was > 100 µM (inactive) throughout.
Take `Oc1cccc2ccc(SSc3ccc4cccc(O)c4n3)nc12`: the GI50 in the experiment with SF-539 was 19.8 µM (inactive); in the experiment with NCI/ADR-RES, 26.1 µM (inactive); in the experiment with SNB-75, 14.7 µM (inactive); in the experiment on NCI-H23, 16.9 µM (inactive); in the experiment with SF-295, 16.6 µM (inactive); with NCI-H522 it was 15.8 µM (inactive). The GI50 is 18.2 µM (inactive) in the experiment with 786-0; 9.59 µM (inactive) in the experiment with MOLT-4; 25.8 µM (inactive) in the experiment with UO-31; 15.1 µM (inactive) with ACHN; 73.1 µM (inactive) in the experiment with DU-145; 23 µM (inactive) in the experiment on HOP-92. Further, the GI50 with MDA-MB-231 is 16.7 µM (inactive); in the experiment with A498, 19.2 µM (inactive); in the experiment on SN12C, 17.9 µM (inactive); in the experiment on SK-OV-3, 16.3 µM (inactive); in the experiment with NCI-H226 it was > 100 µM (inactive); with UACC-257, 20.2 µM (inactive). In addition, the GI50 was 19.1 µM (inactive) in the experiment with SK-MEL-2 and 16.4 µM (inactive) with U-251.
